In general, GI50 refers to the concentration that inhibits growth by half. In general, IC50 refers to the concentration that inhibits the measured activity by half.

The source of these data is ChEMBL document CHEMBL3856191, “Structural modifications at the 6-position of thieno[2,3-d]pyrimidines and their effects on potency at FLT3 for treatment of acute myeloid leukemia” (Eur J Med Chem, 2016).

One data set addresses Angiopoietin-1 receptor (Homo sapiens, UniProt Q02763). The experiment in a line: Inhibition of human TIE2 assessed as remaining activity at 10 uM preincubated for 15 mins followed by substrate addition measured after 30 mins in presence of [gamma-32P]ATP by […] assay. For orientation: In TR-FRET formats the signal depends on donor and acceptor labels being close together.

The nature of data set [1]: Metabolic stability in human liver microsomes assessed as compound remaining at 1 uM after 30 mins in presence of NADPH by HPLC-MS analysis. It is filed as ADME. The conditions noted are these: read-out: Stability.
Data set [2] addresses Tyrosine-protein kinase ABL1 (Homo sapiens, UniProt P00519). Briefly: Inhibition of recombinant human ABL1 expressed in insect cells assessed as remaining activity at 10 uM preincubated for 15 mins followed by poly(Glu:Tyr) substrate addition for 30 mins in presence of [gamma-32P]ATP by […] assay.
Data set [3] in a line: Metabolic stability in rat liver microsomes assessed as compound remaining at 1 uM after 30 mins in presence of NADPH by HPLC-MS analysis. It is filed as ADME. The conditions noted are these: for remaining at 0.5 h, 1 µM: liver microsomes, read-out: Stability. (Liver microsomes are vesicles of endoplasmic reticulum, rich in cytochrome P450 enzymes.)
Data set [4] can be described thus: cells. The conditions noted are these: Homo sapiens, THP-1, 48 h.
Description: Growth inhibition of human THP1 cells expressing wild type FLT-3 after 48 hrs by XTT assay
Data set [5] in a line: cells. As to conditions: Homo sapiens, MV4-11, 48 h.
Description: Growth inhibition of human MV4-11 cells expressing FLT3-ITD after 48 hrs by XTT assay
Data set [6] has as its target Receptor-type tyrosine-protein kinase FLT3 (Homo sapiens, UniProt P36888, D835Y).
Description: Inhibition of human FLT3 D835Y mutant preincubated for 15 mins followed by poly(Glu:Tyr) substrate addition for 30 mins in presence of [gamma-32P]ATP by TR-FRET assay
Data set [7] can be described thus: cells. The conditions noted are these: Homo sapiens, K562, 48 h.
Description: Growth inhibition of human K562 cells after 48 hrs by XTT assay
Data set [8] deals with T1, Receptor-type tyrosine-protein kinase FLT3 (Homo sapiens, UniProt P36888).
T1 sequence (P36888 whole entry): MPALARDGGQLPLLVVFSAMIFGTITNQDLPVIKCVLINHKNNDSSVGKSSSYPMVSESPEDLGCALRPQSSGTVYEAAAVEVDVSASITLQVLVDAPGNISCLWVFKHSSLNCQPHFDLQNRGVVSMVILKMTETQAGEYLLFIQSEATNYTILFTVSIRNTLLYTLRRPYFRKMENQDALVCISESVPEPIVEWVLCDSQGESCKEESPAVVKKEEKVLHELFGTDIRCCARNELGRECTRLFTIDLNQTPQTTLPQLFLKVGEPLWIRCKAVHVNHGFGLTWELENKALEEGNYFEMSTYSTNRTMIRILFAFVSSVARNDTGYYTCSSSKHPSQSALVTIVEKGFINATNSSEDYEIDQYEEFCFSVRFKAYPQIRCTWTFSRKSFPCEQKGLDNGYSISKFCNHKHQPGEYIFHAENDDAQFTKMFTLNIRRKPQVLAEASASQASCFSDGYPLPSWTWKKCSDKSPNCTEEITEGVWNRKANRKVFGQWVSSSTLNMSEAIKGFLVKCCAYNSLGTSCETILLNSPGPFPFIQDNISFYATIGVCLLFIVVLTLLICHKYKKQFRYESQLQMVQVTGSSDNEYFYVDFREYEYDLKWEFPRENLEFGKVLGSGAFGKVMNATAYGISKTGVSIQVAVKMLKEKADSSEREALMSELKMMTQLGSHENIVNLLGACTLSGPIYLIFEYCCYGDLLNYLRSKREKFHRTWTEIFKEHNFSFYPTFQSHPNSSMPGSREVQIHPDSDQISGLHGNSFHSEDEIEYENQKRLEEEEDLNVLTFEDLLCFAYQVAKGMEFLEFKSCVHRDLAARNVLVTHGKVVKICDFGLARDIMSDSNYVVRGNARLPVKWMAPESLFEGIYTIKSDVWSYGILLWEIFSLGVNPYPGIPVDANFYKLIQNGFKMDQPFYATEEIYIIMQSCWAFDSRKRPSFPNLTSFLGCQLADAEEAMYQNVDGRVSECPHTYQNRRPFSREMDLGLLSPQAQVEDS
The experiment in a line: biochemical. It is filed as cell-based, Sf21.
Description: Inhibition of recombinant human FLT3 expressed in insect Sf21 cells preincubated for 15 mins followed by poly(Glu:Tyr) substrate addition for 30 mins in presence of [gamma-32P]ATP by TR-FRET assay

A short description of data set [9]: cells. As to conditions: Homo sapiens, HL-60, 48 h.
Description: Growth inhibition of human HL60 cells expressing wild type FLT-3 after 48 hrs by XTT assay

Sequence of Angiopoietin-1 receptor (Q02763 whole entry): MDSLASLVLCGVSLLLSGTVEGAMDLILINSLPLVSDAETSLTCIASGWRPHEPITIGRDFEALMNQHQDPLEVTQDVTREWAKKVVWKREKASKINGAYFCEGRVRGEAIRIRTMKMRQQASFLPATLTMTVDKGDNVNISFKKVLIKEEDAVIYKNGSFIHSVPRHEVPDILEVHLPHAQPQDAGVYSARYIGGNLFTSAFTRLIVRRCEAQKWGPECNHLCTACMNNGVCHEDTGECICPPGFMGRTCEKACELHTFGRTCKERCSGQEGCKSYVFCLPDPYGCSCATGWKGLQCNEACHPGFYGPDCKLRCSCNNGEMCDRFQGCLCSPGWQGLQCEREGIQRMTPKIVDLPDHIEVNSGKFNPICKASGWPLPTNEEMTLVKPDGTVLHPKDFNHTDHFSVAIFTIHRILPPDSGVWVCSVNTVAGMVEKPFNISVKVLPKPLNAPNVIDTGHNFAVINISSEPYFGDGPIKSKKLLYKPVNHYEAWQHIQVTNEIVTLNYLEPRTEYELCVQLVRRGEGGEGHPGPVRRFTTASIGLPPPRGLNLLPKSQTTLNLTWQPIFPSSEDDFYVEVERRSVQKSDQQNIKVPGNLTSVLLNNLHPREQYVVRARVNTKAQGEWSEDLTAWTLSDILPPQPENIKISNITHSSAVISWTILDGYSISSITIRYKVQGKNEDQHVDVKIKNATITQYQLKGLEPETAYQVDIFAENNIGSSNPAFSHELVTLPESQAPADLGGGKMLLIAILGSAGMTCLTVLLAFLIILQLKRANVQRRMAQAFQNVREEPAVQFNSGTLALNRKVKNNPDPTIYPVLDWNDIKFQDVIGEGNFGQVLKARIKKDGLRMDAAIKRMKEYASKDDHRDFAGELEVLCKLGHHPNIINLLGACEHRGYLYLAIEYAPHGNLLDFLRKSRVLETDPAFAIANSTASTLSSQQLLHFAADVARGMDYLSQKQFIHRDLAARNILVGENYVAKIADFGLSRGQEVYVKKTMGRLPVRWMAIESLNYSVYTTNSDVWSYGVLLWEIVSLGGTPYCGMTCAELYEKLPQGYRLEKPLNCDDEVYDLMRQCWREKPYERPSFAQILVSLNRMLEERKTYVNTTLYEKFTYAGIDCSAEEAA
Sequence of Tyrosine-protein kinase ABL1 (P00519 whole entry): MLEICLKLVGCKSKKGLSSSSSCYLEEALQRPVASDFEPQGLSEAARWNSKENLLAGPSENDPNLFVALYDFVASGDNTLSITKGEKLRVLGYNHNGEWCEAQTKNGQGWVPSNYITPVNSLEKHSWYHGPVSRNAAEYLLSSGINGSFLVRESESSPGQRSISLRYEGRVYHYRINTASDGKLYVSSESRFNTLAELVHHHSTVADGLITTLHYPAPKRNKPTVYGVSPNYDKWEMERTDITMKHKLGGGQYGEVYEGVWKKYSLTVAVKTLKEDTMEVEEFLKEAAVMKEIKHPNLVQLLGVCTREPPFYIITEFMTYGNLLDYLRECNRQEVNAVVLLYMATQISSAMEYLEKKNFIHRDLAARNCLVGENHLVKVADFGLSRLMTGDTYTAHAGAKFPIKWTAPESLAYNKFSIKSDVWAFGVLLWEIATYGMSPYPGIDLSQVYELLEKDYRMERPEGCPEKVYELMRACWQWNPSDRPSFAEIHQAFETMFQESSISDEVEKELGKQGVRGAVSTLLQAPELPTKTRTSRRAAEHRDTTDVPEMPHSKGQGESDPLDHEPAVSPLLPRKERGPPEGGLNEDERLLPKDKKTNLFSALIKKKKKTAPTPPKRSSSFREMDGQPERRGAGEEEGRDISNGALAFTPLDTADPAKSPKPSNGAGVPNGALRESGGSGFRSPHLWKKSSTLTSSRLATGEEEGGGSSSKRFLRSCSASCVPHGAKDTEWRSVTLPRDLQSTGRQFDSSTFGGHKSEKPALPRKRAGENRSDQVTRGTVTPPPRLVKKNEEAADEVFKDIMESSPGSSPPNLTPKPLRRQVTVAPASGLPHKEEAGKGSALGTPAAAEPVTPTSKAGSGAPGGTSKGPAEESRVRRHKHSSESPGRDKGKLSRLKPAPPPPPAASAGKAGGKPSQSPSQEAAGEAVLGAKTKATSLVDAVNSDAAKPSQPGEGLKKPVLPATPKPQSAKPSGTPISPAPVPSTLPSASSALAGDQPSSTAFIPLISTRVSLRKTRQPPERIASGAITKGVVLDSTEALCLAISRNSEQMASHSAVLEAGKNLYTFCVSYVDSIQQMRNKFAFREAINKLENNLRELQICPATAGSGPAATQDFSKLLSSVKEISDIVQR

In the case of `CC1=CC(=O)N(Nc2nc(-c3cccs3)nc3sc(-c4ccc(OC5CCNC5)cc4)c(C)c23)C1=O` (stereo not given), the Activity amounted to 25% on Angiopoietin-1 receptor and 26% in data set [2]. For the same molecule, the remaining at 0.5 h, 1 µM is 50.8% in data set [1] and 34.2% in data set [3]. Besides, the GI50 in the data set “cells [4]” came to 227 nM; in the data set “cells [5]”, 366 nM; in the data set “cells [7]” it was 315 nM; in “cells [9]” it was 214 nM. Besides, the IC50 worked out at 29.3 nM in [6] and 3.77 nM in data set [8].
For the molecule `CC1=CC(=O)N(Nc2nc(-c3cccs3)nc3sc(-c4ccc(OCC5CCCO5)cc4)c(C)c23)C1=O` (stereo not given), the figures for the remaining at 0.5 h, 1 µM in data set [1] and in [3] were 41.7% and 41%, respectively.
Consider `CC1=CC(=O)N(Nc2nc(-c3cccs3)nc3sc(-c4ccc(OC5CCNCC5)cc4)c(C)c23)C1=O`, for which the remaining at 0.5 h, 1 µM came out at 52.4% in data set [1] and 47.8% in data set [3]. Also, the GI50 is 460 nM in the data set “cells [4]”, 580 nM in the data set “cells [5]”, 425 nM in “cells [7]” and 377 nM in “cells [9]”. The figures for the IC50 in data set [6] and in data set [8] were 27.2 nM and 31.4 nM, respectively.
With `CC1=CC(=O)N(Nc2nc(-c3cccs3)nc3sc(-c4ccc(O)cc4)cc23)C1=O`, the remaining at 0.5 h, 1 µM worked out at 74.1% in data set [1] and 28.2% in data set [3]. The GI50 turned out to be 765 nM in the data set “cells [4]”, 927 nM in “cells [5]”, 506 nM in the data set “cells [7]” and 336 nM in “cells [9]”. Also, the IC50 amounted to 78.7 nM in data set [6] and 75.5 nM in data set [8].
As to `CC1=CC(=O)N(Nc2nc(-c3cccs3)nc3sc(-c4ccc(OCCN5CCCC5)cc4)c(C)c23)C1=O`, the values for the remaining at 0.5 h, 1 µM in [1] and in [3] were 72.7% and 41.5%, respectively. Further, the GI50 in the data set “cells [4]” is 636 nM; in the data set “cells [5]”, 585 nM; in “cells [7]” it was 1040 nM; in “cells [9]” it was 1260 nM. The figures for the IC50 in data set [6] and in [8] were 16.5 nM and 6.43 nM, respectively.
As for `CC1=CC(=O)N(Nc2nc(-c3cccs3)nc3sc(-c4ccc(F)cc4)c(C)c23)C1=O`, the remaining at 0.5 h, 1 µM in [1] was determined as 39.5%; in [3], 54.5%.
For the molecule `CC1=CC(=O)N(Nc2nc(-c3cccs3)nc3sc(-c4ccc(OCCNCC(C)C)cc4)c(C)c23)C1=O`, the remaining at 0.5 h, 1 µM was 66.2% in data set [1] and 39.7% in data set [3]. The GI50 in the data set “cells [4]” is 449 nM; in the data set “cells [5]” it was 278 nM; in “cells [7]” it was 489 nM; in “cells [9]”, 598 nM. For the same molecule, the IC50 in data set [6] amounted to 35.9 nM; in [8], 2.5 nM.
As to `CC1=CC(=O)N(Nc2nc(-c3cccs3)nc3sc(-c4ccc(OCc5ccc(F)cc5)cc4)c(C)c23)C1=O`, the figures for the remaining at 0.5 h, 1 µM in data set [1] and in data set [3] were 66.9% and 35.6%, respectively.
Regarding `CC1=CC(=O)N(Nc2nc(-c3cccs3)nc3sc(-c4ccc(OCCNCc5ccccc5)cc4)c(C)c23)C1=O`, the remaining at 0.5 h, 1 µM in data set [1] worked out at 86.2%; in data set [3], 30.4%. In addition, the IC50 in [6] is 9.48 nM; in [8], 71.9 nM.
As to `CC1=CC(=O)N(Nc2nc(-c3cccs3)nc3sc(-c4ccc(O)cc4)c(C)c23)C1=O`, the remaining at 0.5 h, 1 µM in data set [1] was 71.8%; in data set [3], 28.8%.
As for `CC1=CC(=O)N(Nc2nc(-c3cccs3)nc3sc(C)c(C)c23)C1=O`, the Activity at Angiopoietin-1 receptor turned out to be 32%; in data set [2], 29%. The remaining at 0.5 h, 1 µM in [1] came out at 32.4%; in [3], 22.7%. The GI50 was found to be 222 nM in the data set “cells [4]”, 191 nM in the data set “cells [5]”, 105 nM in “cells [7]” and 127 nM in the data set “cells [9]”. Besides, the IC50 was determined as 13.7 nM in [6] and 11.4 nM in data set [8].
Consider `COc1ccc(-c2cc3c(NN4C(=O)C=C(C)C4=O)nc(-c4cccs4)nc3s2)cc1`, for which the GI50 came to 1270 nM in “cells [4]”, 1700 nM in the data set “cells [5]”, 1090 nM in the data set “cells [7]” and 682 nM in “cells [9]”. Besides, the concentration for half-maximal inhibition (IC50) was found to be 47.1 nM in [6] and 68.6 nM in [8].
With `CC1=CC(=O)N(Nc2nc(-c3cccs3)nc3sc(CO)c(C)c23)C1=O`, the remaining at 0.5 h, 1 µM in data set [1] is 24.6%; in data set [3] it was 20.4%.
Regarding `CC1=CC(=O)N(Nc2nc(-c3cccs3)nc3sc(-c4ccc(OCCNCCC#N)cc4)c(C)c23)C1=O`, the results for the remaining at 0.5 h, 1 µM in data set [1] and in [3] were 52% and 32.1%, respectively. The IC50 in data set [6] worked out at 29.4 nM; in data set [8] it was 191 nM.
For `CC1=CC(=O)N(Nc2nc(-c3cccs3)nc3sc(C#N)c(C)c23)C1=O`, the results for the remaining at 0.5 h, 1 µM in [1] and in data set [3] were 52.7% and 26.1%, respectively. In addition, the results for the IC50 in [6] and in data set [8] were 75 nM and 118 nM, respectively.
Taken in the same sequence, the figures for `CC1=CC(=O)N(Nc2nc(-c3cccs3)nc3sc(-c4ccc(F)cc4)cc23)C1=O` were 61%, 26.9%, 54.4 nM and 124 nM.
Regarding `CC1=CC(=O)N(Nc2nc(-c3cccs3)nc3sc(-c4ccc(OCCNCCO)cc4)c(C)c23)C1=O.Cl`, in data set [1], the remaining at 0.5 h, 1 µM came to 91.3%. Besides, in data set [3] (microsomes, 0.5 h, 1 µM), the Stability entry is listed as “Nd(Unstable)”. Also, the GI50 stood at 843 nM in the data set “cells [4]”, 1130 nM in “cells [5]”, 1410 nM in the data set “cells [7]” and 1340 nM in the data set “cells [9]”. The IC50 came to 0.334 nM in data set [6] and 5.31 nM in [8].
Take `CC1=CC(=O)N(Nc2nc(-c3cccs3)nc3sc(C)cc23)C1=O`: the remaining at 0.5 h, 1 µM in [1] came out at 58.8%; in data set [3], 32.6%. In addition, the GI50 in “cells [4]” worked out at 1240 nM; in the data set “cells [5]”, 1060 nM; in the data set “cells [7]”, 1000 nM; in “cells [9]” it was 422 nM. Also, the IC50 stood at 14.7 nM in [6] and 16.8 nM in [8].
